{"source": "paper PMC5356016", "about": "“Suppression of Sin3A activity promotes differentiation of pluripotent cells into functional neurons” (Scientific Reports, 2017)", "key": {"[1]": {"test_system": "voltage-gated sodium channels", "format": "cell-based, mouse"}, "[2]": {"test_system": "voltage-gated sodium channels", "format": "cell-based, mouse", "remark": "listed apart in the source"}, "[3]": {"test_system": "Sin3A PAH1-REST interaction", "assay": "Competitive ELISA, inhibition of PAH1-REST binding", "set-up": "species or system mouse", "settings": "peptide 0-100 μM pre-incubated 2 h, room temperature, GST-REST 2 μg/mL, mean ± s.d., n = 3"}, "[4]": {"test_system": "Sin3A PAH2-REST interaction", "assay": "Competitive ELISA, inhibition of PAH2-REST binding", "set-up": "species or system mouse", "settings": "peptide 0-100 μM pre-incubated 2 h, room temperature, GST-REST 2 μg/mL, mean ± s.d., n = 3"}, "[5]": {"test_system": "mouse Sin3A PAH1 (residues 114–195)", "assay": "Fluorescence polarization binding to Sin3A PAH1", "settings": "1 μM FITC-labeled peptide, PAH1 or PAH2 0-10 μM, 20 mM Tris-HCl, 150 mM NaCl, pH 7.5, 30 min, room temperature; ex 495/em 520 nm; mean ± s.d., n = 3"}, "Sin3A PAH1": {"target": "Sin3A PAH1", "settings": "SAP25 protein sequence 171–186, ref [35]; cited from earlier work", "source_text": "(§1) If this proposal is correct, a synthetic inhibitor of Sin3A-REST interactions should promote neurogenesis of these cells. Previous studies have shown that the N-terminal PAH1 and PAH2 domains of Sin3A bind to the N-terminal region of REST[6]."}, "Sin3A-REST interaction": {"test_system": "Sin3A-REST interaction", "assay": "Co-immunoprecipitation of Sin3A and REST from P19 cell lysates", "format": "biochemical, mouse", "settings": "peptide 0, 30, 60 μM, 2 h at 4 °C, anti-REST or anti-Sin3A immunoprecipitation, western blot, at least three experiments", "protocol": "We next examined whether the Mad1 and SAP25 peptides block the Sin3A-REST interaction. First, the ability of these peptides to inhibit the associations of PAH1 and PAH2 with REST was determined using ELISA. […] However, the Mad1 and SAP25 peptides had little effect on the respective PAH1-REST and PAH2-REST interactions. The cellular inhibitory activities of these peptides were then determined using an immunoprecipitation analysis. After incubating P19 cell lysates with several concentrations of SAP25 and MAD1 peptides, REST in the cell lysates was immunoprecipitated using the anti-REST antibody. The precipitates were probed using the anti-Sin3A antibody. […]\nFigure 5 Inhibitory effect of the SAP25 and Mad1 peptides on binding of Sin3A PAH1 or PAH2 to REST. […] Binding of GST-REST to PAH1 and PAH2 was measured using the anti-GST antibody and HRP conjugated secondary antibody (mean ± s.d., n = 3). […] Immunoprecipitation was performed with antibodies against (c) REST and (d) Sin3A, and the amount of co-precipitated proteins was then determined using western blot analysis. ‘Un’ indicates no treatment with a peptide. […]\nFluorescence polarization assay […]\nAfter washing with TBST, GST-REST (2 µg/mL) was added to the wells and then incubated for 2 h. The bound GST-REST to PAH1 or PAH2 was detected by using anti-GST antibody […]"}, "[6]": {"test_system": "mouse Sin3A PAH2 (residues 295–385)", "assay": "Fluorescence polarization binding to Sin3A PAH2", "settings": "1 μM FITC-labeled peptide, PAH1 or PAH2 0-10 μM, 20 mM Tris-HCl, 150 mM NaCl, pH 7.5, 30 min, room temperature; ex 495/em 520 nm; mean ± s.d., n = 3"}, "Sin3A PAH2": {"target": "Sin3A PAH2", "settings": "Mad1 protein sequence 6–21, ref [34]; cited from earlier work", "source_text": "as §1"}, "P19 cells": {"test_system": "P19 cells", "assay": "Neuronal differentiation of P19 cells (immunocytochemistry, western blot, RT-PCR)", "format": "cell-based, mouse", "settings": "30 μM TAT, 10 days, Tuj1 antibody"}}, "note": "“Also recorded” adds a separate entry of the source."}
{"compound": "NC1=N[C@H](O)[C@H]2[C@H]3O[C@]4(O)O[C@@H]([C@@H](O)[C@@]2(N1)[C@@H]4O)[C@]3(O)CO", "note": "[TTX, tetrodotoxin]", "values": [{"measurement": "effect of TTX on action potentials elicited by current injections (in words)", "setting": "[1]", "value": "almost completely blocked"}, {"measurement": "effect of TTX on current injection-promoted action potentials (in words)", "setting": "[2]", "value": "almost completely abrogated"}]}
{"compound": "AEMIALAGLLQMSQGEX [SAP25 peptide]", "values": [{"measurement": "inhibition of PAH1-REST binding (in words)", "setting": "[3]", "value": "the level of inhibition of binding of PAH2 to REST by Mad1 was greater than that of SAP25 toward PAH1-REST interactions"}, {"measurement": "inhibition of PAH2-REST binding (in words)", "setting": "[4]", "value": "little effect"}, {"measurement": "binding to Sin3A PAH1 (in words)", "setting": "[5]", "value": "bind PAH1 much more tightly than PAH2"}, {"measurement": "Kd", "setting": "Sin3A PAH1", "value": 134, "unit": "nM"}, {"measurement": "inhibition of Sin3A-REST interaction (in words)", "setting": "Sin3A-REST interaction", "value": "Mad1 peptide exhibited a much greater ability to block interactions of Sin3A with REST than the SAP25 peptide"}]}
{"compound": "RMNIQMLLEAADYLERX [Mad1 peptide]", "values": [{"measurement": "inhibition of PAH1-REST binding (in words)", "setting": "[3]", "value": "little effect"}, {"measurement": "inhibition of PAH2-REST binding (in words)", "setting": "[4]", "value": "the level of inhibition of binding of PAH2 to REST by Mad1 was greater than that of SAP25 toward PAH1-REST interactions"}, {"measurement": "binding to Sin3A PAH2 (in words)", "setting": "[6]", "value": "interact with PAH2 much more strongly than PAH1"}, {"measurement": "Kd", "setting": "Sin3A PAH2", "value": 29, "unit": "nM"}, {"measurement": "inhibition of Sin3A-REST interaction (in words)", "setting": "Sin3A-REST interaction", "value": "much greater ability to block interactions of Sin3A with REST than the SAP25 peptide; also recorded: has inhibitory activity against REST-Sin3A interactions in cells"}]}
{"compound": "YGRKKRRQRRR [TAT]", "values": [{"measurement": "neuronal differentiation (in words), TAT control", "setting": "P19 cells", "value": "did not affect neuronal differentiation"}]}
